In PubChem BioAssay AID206 (DTP/NCI, 2004):
Values joined by “and” are separate entries in the source; they are usually repeats but may differ in a detail not shown here. Equal values may be shown once. Records with an inconclusive call do not appear. Starred links: 1 amine or outer side, 2 acyl side, 3 side chain; linkers in the order of their positions; H or OH if unused. Non-standard residues stand in square brackets, D forms with d. Residues, ends and D or L forms follow the SMILES beside them. *: point of attachment. X2 = CCC(=O)CC1CC(C)CC(C(=O)[*:2])N1[*:1]; X1 = CCCCCCCCC(C)C(=O)*; Aib = CC(C)(N)C(=O)O; X3 = CC(CN(C)CCO)N*

Tested on: nude mice, HT29 intrarenal xenograft, tumor weight T/C
Assay: NCI In Vivo Anticancer Drug Screen. Data for tumor model HT29;CX-1 Human Adenocarcinoma (MER+) (intrarenal inoculation) in NU/NU Swiss (nude) mice
Details: endpoint: mean tumor weight change, higher = larger tumour
Experimental: The antitumor activity of compounds was measured in mice bearing transplantable tumors. Survival or tumor size were measured and the results are expressed as the measurement made in the treated group (T) divided by the measurement made in the vehicle treated control group (C). The tumor model used in this assay is HT29;CX-1 Human Adenocarcinoma (MER+) (intrarenal inoculation) in NU/NU Swiss (nude) mice

[1] = dose: 100.0 mg/kg/injection, schedule: Q04DX004 (sc), vehicle: suspension in saline
[2] = dose: 200.0 mg/kg/injection, schedule: Q04DX004 (sc), vehicle: suspension in saline
[3] = dose: 75.0 mg/kg/injection, schedule: Q04DX004 (sc), vehicle: saline with Tween-80
[4] = dose: 150.0 mg/kg/injection, schedule: Q04DX004 (sc), vehicle: saline with Tween-80
[5] = dose: 300.0 mg/kg/injection, schedule: Q04DX004 (sc), vehicle: saline with Tween-80
[6] = dose: 50.0 mg/kg/injection, schedule: Q01DX010 (sc), vehicle: Klucel (hydroxypropylcellulose) (HPC)
[7] = dose: 100.0 mg/kg/injection, schedule: Q01DX010 (sc), vehicle: Klucel (hydroxypropylcellulose) (HPC)
[8] = dose: 150.0 mg/kg/injection, schedule: Q04DX004 (sc), vehicle: Klucel (hydroxypropylcellulose) (HPC)
[9] = dose: 300.0 mg/kg/injection, schedule: Q04DX004 (sc), vehicle: Klucel (hydroxypropylcellulose) (HPC)
[10] = dose: 75.0 mg/kg/injection, schedule: Q04DX004 (sc), vehicle: saline
[11] = dose: 150.0 mg/kg/injection, schedule: Q04DX004 (sc), vehicle: saline
[12] = dose: 600.0 mg/kg/injection, schedule: Q04DX004 (sc), vehicle: Klucel (hydroxypropylcellulose) (HPC)
[13] = dose: 1200.0 mg/kg/injection, schedule: Q04DX004 (sc), vehicle: Klucel (hydroxypropylcellulose) (HPC)

Oc1c(Cl)cc(C(c2cc(Cl)c(O)c(Cl)c2)C(c2cc(Cl)c(O)c(Cl)c2)c2cc(Cl)c(O)c(Cl)c2)cc1Cl
T/C (dose: 450.0 mg/kg/injection, schedule: Q04DX004 (sc), vehicle: Klucel (hydroxypropylcellulose) (HPC)): 104 % of control | T/C (dose: 900.0 mg/kg/injection, schedule: Q04DX004 (sc), vehicle: Klucel (hydroxypropylcellulose) (HPC)): 95 % of control | T/C (dose: 1800.0 mg/kg/injection, schedule: Q04DX004 (sc), vehicle: Klucel (hydroxypropylcellulose) (HPC)): 96 % of control

CCCCCCCCC(C)C(=O)N1CCCC1C(=O)N1C(CC(=O)CC)CC(C)CC1C(=O)NC(C)C(=O)NC(C)(C)C(=O)NC(C)(C)C(=O)NC(C(=O)NC(C)C(=O)NC(C)(C)C(=O)NC(C)(C)C(=O)NC(C)CN(C)CCO)C(C)CC (configuration not stated) (X1-P[X2]A[Aib][Aib]IA[Aib][Aib]-X3; configuration not given here)
T/C (dose: 1.88 mg/kg/injection, schedule: Q04DX004 (sc), vehicle: Klucel (hydroxypropylcellulose) (HPC)): 94 % of control | T/C (dose: 3.75 mg/kg/injection, schedule: Q04DX004 (sc), vehicle: Klucel (hydroxypropylcellulose) (HPC)): 59 % of control and 67 % of control

CC1=CC(=NN=c2cc(C)n([O-])c(C)c2)C=C(C)[N+]1=O
T/C [1]: 73 % of control | T/C [2]: 48 % of control | T/C (dose: 400.0 mg/kg/injection, schedule: Q04DX004 (sc), vehicle: suspension in saline): 40 % of control | T/C (dose: 800.0 mg/kg/injection, schedule: Q04DX004 (sc), vehicle: suspension in saline): 39 % of control

CN=C(N)N/N=C(\C)c1ccc2oc3ccc(/C(C)=N/NC(N)=NC)cc3c2c1
T/C [3]: 156 % of control | T/C [4]: 63 % of control | T/C [5]: 98 % of control

C/C(=C\c1ccccc1)[N+](=O)[O-]
T/C [6]: 91 % of control | T/C [7]: 110 % of control

O=NN(CCCl)C(=O)Oc1ccc(OC(=O)N(CCCl)N=O)cc1
T/C (dose: 37.5 mg/kg/injection, schedule: Q04DX004 (sc), vehicle: Klucel (hydroxypropylcellulose) (HPC)): 44 % of control | T/C (dose: 75.0 mg/kg/injection, schedule: Q04DX004 (sc), vehicle: Klucel (hydroxypropylcellulose) (HPC)): 67 % of control | T/C [8]: 29 % of control | T/C [9]: 23 % of control

CN(CCN(C)C(=O)CCOS(C)(=O)=O)C(=O)CCOS(C)(=O)=O
T/C [10]: 64 % of control | T/C [11]: 36 % of control

CC1=C(C)C(=O)O[C@@H]([C@](C)(O)[C@]2(O)CC[C@@]3(O)[C@@H]4C[C@H]5O[C@]56CC=CC(=O)[C@]6(C)[C@H]4CC[C@]23C)C1
T/C (dose: 450.0 mg/kg/injection, schedule: Q04DX004 (sc), vehicle: suspension in saline): 86 % of control | T/C (dose: 900.0 mg/kg/injection, schedule: Q04DX004 (sc), vehicle: suspension in saline): 76 % of control | T/C (dose: 1800.0 mg/kg/injection, schedule: Q04DX004 (sc), vehicle: suspension in saline): 102 % of control

Nc1ncnc2c1ncn2C1C=C(CO)C(O)C1O (configuration not stated)
T/C (dose: 3.75 mg/kg/injection, schedule: Q04DX004 (sc), vehicle: saline): 76 % of control | T/C (dose: 7.5 mg/kg/injection, schedule: Q04DX004 (sc), vehicle: saline): 103 % of control | T/C (dose: 15.0 mg/kg/injection, schedule: Q04DX004 (sc), vehicle: saline): 81 % of control

C=C1CC2(OC1=O)C(=O)N(C)c1ccc(I)cc12 (configuration not stated)
T/C (dose: 37.5 mg/kg/injection, schedule: Q04DX004 (sc), vehicle: suspension in saline): 80 % of control | T/C (dose: 75.0 mg/kg/injection, schedule: Q04DX004 (sc), vehicle: suspension in saline): 71 % of control | T/C (dose: 150.0 mg/kg/injection, schedule: Q04DX004 (sc), vehicle: suspension in saline): 81 % of control

COC(=O)C12OCC34C(CC5C(C)=CC(=O)C(O)C5(C)C3C(O)C1O)OC(=O)C(OC(=O)CC(C)C)C24 (configuration not stated)
T/C (dose: 1.5 mg/kg/injection, schedule: Q04DX004 (sc), vehicle: saline + alcohol): 59 % of control | T/C (dose: 3.0 mg/kg/injection, schedule: Q04DX004 (sc), vehicle: saline + alcohol): 76 % of control

CCOC(=O)CNC(=O)Sc1ccc(C(C)(C)C)cc1
T/C (dose: 300.0 mg/kg/injection, schedule: Q04DX003 (sc), vehicle: Klucel (hydroxypropylcellulose) (HPC)): 98 % of control | T/C (dose: 600.0 mg/kg/injection, schedule: Q04DX003 (sc), vehicle: Klucel (hydroxypropylcellulose) (HPC)): 113 % of control | T/C (dose: 1200.0 mg/kg/injection, schedule: Q04DX003 (sc), vehicle: Klucel (hydroxypropylcellulose) (HPC)): 44 % of control | T/C (dose: 2400.0 mg/kg/injection, schedule: Q04DX003 (sc), vehicle: Klucel (hydroxypropylcellulose) (HPC)): 103 % of control

CS(=O)(=O)OCCN(CCOS(C)(=O)=O)c1ccc(C=Nc2ccc(-c3csc(COc4ccccc4)n3)cc2)cc1
T/C [6]: 72 % of control | T/C [7]: 44 % of control

O=C1CN(CN2CCOCC2)C(=O)CN1CN1CCOCC1
T/C (dose: 25.0 mg/kg/injection, schedule: Q01DX010 (sc), vehicle: suspension in saline): 53 % of control | T/C (dose: 50.0 mg/kg/injection, schedule: Q01DX010 (sc), vehicle: suspension in saline): 122 % of control | T/C (dose: 100.0 mg/kg/injection, schedule: Q01DX010 (sc), vehicle: suspension in saline): 114 % of control | T/C (dose: 200.0 mg/kg/injection, schedule: Q01DX010 (sc), vehicle: suspension in saline): 69 % of control

CN(Cc1cnc2nc(N)nc(N)c2n1)c1ccc(C(=O)N[C@@H](CCC(=O)O)C(=O)O)cc1
T/C (dose: 0.5 mg/kg/injection, schedule: Q01DX010 (sc), vehicle: sodium bicarbonate): 116 % of control | T/C (dose: 1.0 mg/kg/injection, schedule: Q01DX010 (sc), vehicle: sodium bicarbonate): 41 % of control

C(=N/NC1=NCCN1)/c1c2ccccc2c(/C=N\NC2=NCCN2)c2ccccc12
T/C (dose: 18.75 mg/kg/injection, schedule: Q04DX004 (sc), vehicle: saline): 83 % of control | T/C (dose: 37.5 mg/kg/injection, schedule: Q04DX004 (sc), vehicle: saline): 105 % of control | T/C [10]: 75 % of control

[O-][n+]1c(CN2CCCCC2)nc2cccc3c2c1-c1ccccc1-3
T/C [8]: 274 % of control | T/C [9]: 150 % of control | T/C [12]: 239 % of control | T/C [13]: 303 % of control

O=C(O[Si](Cc1ccccc1)(Cc1ccccc1)Cc1ccccc1)N(CCCl)CCCl
T/C (dose: 100.0 mg/kg/injection, schedule: Q04DX004 (sc), vehicle: saline with Tween-80): 119 % of control | T/C (dose: 200.0 mg/kg/injection, schedule: Q04DX004 (sc), vehicle: saline with Tween-80): 121 % of control

O=C1C(=O)c2ccccc2C(O)=C1CC=C(Cl)Cl
T/C (dose: 100.0 mg/kg/injection, schedule: Q01DX010 (sc), vehicle: water): 183 % of control | T/C (dose: 400.0 mg/kg/injection, schedule: Q01DX010 (sc), vehicle: water): 74 % of control and 213 % of control

Nc1nc(N)c2c(Cl)c(CNc3ccc(Cl)c(Cl)c3)ccc2n1
T/C (dose: 9.38 mg/kg/injection, schedule: Q04DX004 (sc), vehicle: saline with Tween-80): 85 % of control | T/C (dose: 18.75 mg/kg/injection, schedule: Q04DX004 (sc), vehicle: saline with Tween-80): 60 % of control | T/C (dose: 37.5 mg/kg/injection, schedule: Q04DX004 (sc), vehicle: saline with Tween-80): 89 % of control and 94 % of control | T/C [3]: 91 % of control and 97 % of control | T/C [4]: 113 % of control | T/C [5]: 64 % of control

C=C1C(=O)OCC1C(=O)O (configuration not stated)
T/C (dose: 50.0 mg/kg/injection, schedule: Q04DX004 (sc), vehicle: suspension in saline): 87 % of control | T/C [1]: 48 % of control | T/C [2]: 48 % of control

O=C1NC(=O)NC(C(=O)O)N1
T/C (dose: 50.0 mg/kg/injection, schedule: Q04DX004 (sc), vehicle: Klucel (hydroxypropylcellulose) (HPC)): 101 % of control | T/C (dose: 100.0 mg/kg/injection, schedule: Q04DX004 (sc), vehicle: Klucel (hydroxypropylcellulose) (HPC)): 67 % of control | T/C (dose: 200.0 mg/kg/injection, schedule: Q04DX004 (sc), vehicle: Klucel (hydroxypropylcellulose) (HPC)): 114 % of control | T/C [9]: 108 % of control | T/C (dose: 400.0 mg/kg/injection, schedule: Q04DX004 (sc), vehicle: Klucel (hydroxypropylcellulose) (HPC)): 91 % of control | T/C [12]: 95 % of control | T/C [13]: 58 % of control

CCN(CC)CCOCCO
T/C [11]: 113 % of control | T/C (dose: 300.0 mg/kg/injection, schedule: Q04DX004 (sc), vehicle: saline): 89 % of control
